The NIST ThermoML archive (doi:10.1016/j.fluid.2014.09.014)

Experiment: refractive index (other wavelength) (dimensionless); xn = mol fraction of the nth substance listed
Details: 101 kPa, Liquid, Standard Abbe refractometry

CC(C)OC(C)C [diisopropyl ether] + CC(C)O
Details | refractive index
308.15 K, Wavelength=632.8 nm, x1 = 0.8864 | 1.36026
308.15 K, Wavelength=632.8 nm, x1 = 0.8903 | 1.35981
308.15 K, Wavelength=632.8 nm, x1 = 0.9113 | 1.35957
308.15 K, Wavelength=632.8 nm, x1 = 0.9547 | 1.3591
308.15 K, Wavelength=632.8 nm, x1 = 0.973 | 1.35877
308.15 K, Wavelength=632.8 nm, x1 = 0.9771 | 1.35864
308.15 K, Wavelength=632.8 nm, x1 = 1 | 1.35853
308.15 K, Wavelength=644 nm, x1 = 0.0277 | 1.36899
308.15 K, Wavelength=644 nm, x1 = 0.0507 | 1.36894
308.15 K, Wavelength=644 nm, x1 = 0.051 | 1.36887
308.15 K, Wavelength=644 nm, x1 = 0.0717 | 1.36856
308.15 K, Wavelength=644 nm, x1 = 0.1528 | 1.3679
308.15 K, Wavelength=644 nm, x1 = 0.1553 | 1.3679
308.15 K, Wavelength=644 nm, x1 = 0.1938 | 1.36761
308.15 K, Wavelength=644 nm, x1 = 0.2029 | 1.36718
308.15 K, Wavelength=644 nm, x1 = 0.245 | 1.36676
308.15 K, Wavelength=644 nm, x1 = 0.297 | 1.36601
308.15 K, Wavelength=644 nm, x1 = 0.2973 | 1.36623
308.15 K, Wavelength=644 nm, x1 = 0.3068 | 1.36594
308.15 K, Wavelength=644 nm, x1 = 0.398 | 1.36466
308.15 K, Wavelength=644 nm, x1 = 0.4609 | 1.36397
308.15 K, Wavelength=644 nm, x1 = 0.5434 | 1.36309
308.15 K, Wavelength=644 nm, x1 = 0.6032 | 1.36241
308.15 K, Wavelength=644 nm, x1 = 0.6371 | 1.36205
308.15 K, Wavelength=644 nm, x1 = 0.701 | 1.36135
308.15 K, Wavelength=644 nm, x1 = 0.754 | 1.36096
308.15 K, Wavelength=644 nm, x1 = 0.791 | 1.36054
308.15 K, Wavelength=644 nm, x1 = 0.8296 | 1.36018
308.15 K, Wavelength=644 nm, x1 = 0.8864 | 1.35996
308.15 K, Wavelength=644 nm, x1 = 0.8903 | 1.35952
308.15 K, Wavelength=644 nm, x1 = 0.9113 | 1.35928
308.15 K, Wavelength=644 nm, x1 = 0.9547 | 1.3588
308.15 K, Wavelength=644 nm, x1 = 0.973 | 1.35847
308.15 K, Wavelength=644 nm, x1 = 0.9771 | 1.35835
308.15 K, Wavelength=644 nm, x1 = 1 | 1.35823
308.15 K, Wavelength=706.5 nm, x1 = 0.0277 | 1.36755
308.15 K, Wavelength=706.5 nm, x1 = 0.0507 | 1.36748
308.15 K, Wavelength=706.5 nm, x1 = 0.051 | 1.36742
308.15 K, Wavelength=706.5 nm, x1 = 0.0717 | 1.36711
308.15 K, Wavelength=706.5 nm, x1 = 0.1528 | 1.36646
308.15 K, Wavelength=706.5 nm, x1 = 0.1553 | 1.36646
308.15 K, Wavelength=706.5 nm, x1 = 0.1938 | 1.36617
308.15 K, Wavelength=706.5 nm, x1 = 0.2029 | 1.36573
308.15 K, Wavelength=706.5 nm, x1 = 0.245 | 1.36532
308.15 K, Wavelength=706.5 nm, x1 = 0.297 | 1.36457
308.15 K, Wavelength=706.5 nm, x1 = 0.2973 | 1.3648
308.15 K, Wavelength=706.5 nm, x1 = 0.3068 | 1.36451
308.15 K, Wavelength=706.5 nm, x1 = 0.398 | 1.36323
308.15 K, Wavelength=706.5 nm, x1 = 0.4609 | 1.36254
308.15 K, Wavelength=706.5 nm, x1 = 0.5434 | 1.36168
308.15 K, Wavelength=706.5 nm, x1 = 0.6032 | 1.361
308.15 K, Wavelength=706.5 nm, x1 = 0.6371 | 1.36064
308.15 K, Wavelength=706.5 nm, x1 = 0.701 | 1.35993
308.15 K, Wavelength=706.5 nm, x1 = 0.754 | 1.35954
308.15 K, Wavelength=706.5 nm, x1 = 0.791 | 1.35911
308.15 K, Wavelength=706.5 nm, x1 = 0.8296 | 1.35877
308.15 K, Wavelength=706.5 nm, x1 = 0.8864 | 1.35855
308.15 K, Wavelength=706.5 nm, x1 = 0.8903 | 1.3581
308.15 K, Wavelength=706.5 nm, x1 = 0.9113 | 1.35786
308.15 K, Wavelength=706.5 nm, x1 = 0.9547 | 1.35741
308.15 K, Wavelength=706.5 nm, x1 = 0.973 | 1.35707
308.15 K, Wavelength=706.5 nm, x1 = 0.9771 | 1.35694
308.15 K, Wavelength=706.5 nm, x1 = 1 | 1.35683
313.15 K, Wavelength=404.7 nm, x1 = 0.0277 | 1.37904
313.15 K, Wavelength=404.7 nm, x1 = 0.0507 | 1.37898
313.15 K, Wavelength=404.7 nm, x1 = 0.051 | 1.37891
313.15 K, Wavelength=404.7 nm, x1 = 0.0717 | 1.37855
313.15 K, Wavelength=404.7 nm, x1 = 0.1528 | 1.37787
313.15 K, Wavelength=404.7 nm, x1 = 0.1553 | 1.37787
313.15 K, Wavelength=404.7 nm, x1 = 0.1938 | 1.37761
313.15 K, Wavelength=404.7 nm, x1 = 0.2029 | 1.37706
313.15 K, Wavelength=404.7 nm, x1 = 0.245 | 1.37653
313.15 K, Wavelength=404.7 nm, x1 = 0.297 | 1.37571
313.15 K, Wavelength=404.7 nm, x1 = 0.2973 | 1.37596
313.15 K, Wavelength=404.7 nm, x1 = 0.3068 | 1.37567
313.15 K, Wavelength=404.7 nm, x1 = 0.398 | 1.37428
313.15 K, Wavelength=404.7 nm, x1 = 0.4609 | 1.37355
313.15 K, Wavelength=404.7 nm, x1 = 0.5434 | 1.37263
313.15 K, Wavelength=404.7 nm, x1 = 0.6032 | 1.37187
313.15 K, Wavelength=404.7 nm, x1 = 0.6371 | 1.37152
313.15 K, Wavelength=404.7 nm, x1 = 0.701 | 1.37074
313.15 K, Wavelength=404.7 nm, x1 = 0.754 | 1.3703
313.15 K, Wavelength=404.7 nm, x1 = 0.791 | 1.36988
313.15 K, Wavelength=404.7 nm, x1 = 0.8296 | 1.36948
313.15 K, Wavelength=404.7 nm, x1 = 0.8864 | 1.36937
313.15 K, Wavelength=404.7 nm, x1 = 0.8903 | 1.3688
313.15 K, Wavelength=404.7 nm, x1 = 0.9113 | 1.36853
313.15 K, Wavelength=404.7 nm, x1 = 0.9547 | 1.36805
313.15 K, Wavelength=404.7 nm, x1 = 0.973 | 1.36771
313.15 K, Wavelength=404.7 nm, x1 = 0.9771 | 1.36756
313.15 K, Wavelength=404.7 nm, x1 = 1 | 1.3674
313.15 K, Wavelength=435.8 nm, x1 = 0.0277 | 1.37606
313.15 K, Wavelength=435.8 nm, x1 = 0.0507 | 1.376
313.15 K, Wavelength=435.8 nm, x1 = 0.051 | 1.37594
